In patent publication US20230146675A1, “PYRIMIDO[5,4-d]PYRIMIDINE DERIVATIVES AS ENT INHIBITORS FOR THE TREATMENT OF CANCERS, AND COMBINATION THEREOF WITH ADENOSINE RECEPTOR ANTAGONISTS” (ITEOS BELGIUM SA, priority 2020, published 2023):

Assays:
[1] = target: T1, Human phosphodiesterase-2A1 (Homo sapiens, UniProt O00408); test: PDE2A1 (h) assay; assay type: biochemical
T1 construct: host or cells: Sf9 cells
Protocol: The test compound (compound 72), reference compound or water (control) were added to a buffer containing 40 mM Tris/HCl (pH 7.8), 3 mM MgCl2, 1.4 mM DTT, 0.21% BSA, 200 mM NH4Cl, 1 μM cGMP and 0.1 μCi [3H]cGMP. Thereafter, the reaction was initiated by addition of the enzyme (final amount depending on the efficiency of the isolation) and the mixture was incubated for 60 min at 22° C. For basal control measurements, the enzyme was omitted from the reaction mixture. Following incubation SPA beads were added. After 20 min at 22° C. under shaking, the amount of [3H]5′GMP was quantified with a scintillation counter (MicroBeta, Perkin Elmer). The results were expressed as a percent inhibition of the control enzyme activity.
The test compound (compound 72), reference compound or water (control) were added to a buffer containing 40 mM Tris/HCl (pH 7.4), 8 mM MgCl2 and 1.7 mM EGTA/NaOH, 1.8 μM cAMP and 1 μCi [3H]cAMP. Thereafter, the reaction was initiated by addition of the enzyme (about 2 ng) and the mixture was incubated for 15 min at 22° C. For basal control measurements, the enzyme was omitted from the reaction mixture. Following incubation SPA beads were added. After 30 min at 22° C. under shaking, the amount of [3H]5′AMP was quantified with a scintillation counter (MicroBeta, Perkin Elmer). The results were expressed as a percent inhibition of the control enzyme activity. […]

[2] = target: T2, Human phosphodiesterase-7A1 (Homo sapiens, UniProt Q13946); test: PDE7A1 (h) assay; assay type: biochemical
T2 construct: host or cells: Sf9 cells
Protocol: The test compound (compound 72), reference compound or water (control) were added to a buffer containing 40 mM Tris/HCl (pH 7.4), 8 mM MgCl2 and 1.7 mM EGTA/NaOH, 1.8 μM cAMP and 1 μCi [3H]cAMP. Thereafter, the reaction was initiated by addition of the enzyme (about 2 ng) and the mixture was incubated for 15 min at 22° C. For basal control measurements, the enzyme was omitted from the reaction mixture. Following incubation SPA beads were added. After 30 min at 22° C. under shaking, the amount of [3H]5′AMP was quantified with a scintillation counter (MicroBeta, Perkin Elmer). The results were expressed as a percent inhibition of the control enzyme activity. The standard inhibitory reference compound was EHNA, which was tested in each experiment at several concentrations to obtain an inhibition curve from which its IC50 value was calculated. • Human phosphodiesterase-7A1 quantified by measuring the formation of 5′AMP from cAMP using a human recombinant enzyme expressed in Sf9 cells
The test compound (compound 72), reference compound or water (control) were added to a buffer containing 40 mM Tris/HCl (pH 7.4) and 8 mM MgCl2, 63 nM cAMP and 0.035 μCi [3H]cAMP. […] After 30 min at 22° C. under shaking, the amount of [3H]5′AMP was quantified with a scintillation counter (MicroBeta, Perkin Elmer). The results were expressed as a percent inhibition of the control enzyme activity. […]

T2 sequence (Q13946 whole entry): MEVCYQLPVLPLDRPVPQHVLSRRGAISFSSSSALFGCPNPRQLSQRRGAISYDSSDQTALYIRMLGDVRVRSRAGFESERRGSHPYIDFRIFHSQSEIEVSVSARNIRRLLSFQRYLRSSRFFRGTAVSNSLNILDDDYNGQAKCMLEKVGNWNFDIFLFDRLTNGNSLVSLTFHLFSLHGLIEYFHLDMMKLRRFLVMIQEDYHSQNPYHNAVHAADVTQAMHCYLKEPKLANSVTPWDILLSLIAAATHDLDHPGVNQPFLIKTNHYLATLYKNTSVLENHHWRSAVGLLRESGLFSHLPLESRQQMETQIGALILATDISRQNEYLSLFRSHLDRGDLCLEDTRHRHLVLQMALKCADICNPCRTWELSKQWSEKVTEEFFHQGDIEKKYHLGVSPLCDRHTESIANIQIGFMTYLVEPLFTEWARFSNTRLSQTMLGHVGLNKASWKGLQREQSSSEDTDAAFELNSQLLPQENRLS
T1 sequence (O00408 1-920 isoform O00408-2): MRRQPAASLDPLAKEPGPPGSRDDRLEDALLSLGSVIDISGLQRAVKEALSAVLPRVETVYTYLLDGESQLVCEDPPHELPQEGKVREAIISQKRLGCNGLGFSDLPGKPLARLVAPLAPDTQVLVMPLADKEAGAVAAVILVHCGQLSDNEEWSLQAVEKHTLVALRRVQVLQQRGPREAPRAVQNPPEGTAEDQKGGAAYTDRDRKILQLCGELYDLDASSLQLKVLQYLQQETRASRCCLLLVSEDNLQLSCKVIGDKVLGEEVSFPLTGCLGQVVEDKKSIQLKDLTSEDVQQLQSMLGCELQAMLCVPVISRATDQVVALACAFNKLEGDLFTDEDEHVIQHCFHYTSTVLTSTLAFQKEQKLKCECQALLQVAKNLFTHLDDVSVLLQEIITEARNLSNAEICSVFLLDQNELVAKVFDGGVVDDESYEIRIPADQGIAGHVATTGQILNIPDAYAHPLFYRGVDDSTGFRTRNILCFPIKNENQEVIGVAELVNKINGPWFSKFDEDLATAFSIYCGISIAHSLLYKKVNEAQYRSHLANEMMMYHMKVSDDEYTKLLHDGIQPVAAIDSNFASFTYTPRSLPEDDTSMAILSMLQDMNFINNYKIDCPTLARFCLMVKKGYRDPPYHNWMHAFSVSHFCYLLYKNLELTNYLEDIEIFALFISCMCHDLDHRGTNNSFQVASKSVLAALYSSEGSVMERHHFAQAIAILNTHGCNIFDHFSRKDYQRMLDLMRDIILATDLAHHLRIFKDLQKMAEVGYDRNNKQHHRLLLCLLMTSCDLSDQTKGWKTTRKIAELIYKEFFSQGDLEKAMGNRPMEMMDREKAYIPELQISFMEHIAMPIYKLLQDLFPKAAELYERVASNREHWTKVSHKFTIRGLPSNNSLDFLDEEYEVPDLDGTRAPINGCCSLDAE

IC50 [1]: > 10 µM
IC50 [2]: > 10 µM
Structure (SMILES): COCCN(CCOC)c1nc(N2CCN(C)C(=O)C2)c2nc(N(CCOC)CCOC)nc(N3CCC(OC)CC3)c2n1 [Compound 72, 4-(2,6-bis(bis(2-methoxyethyl)amino)-8-(4-methoxypiperidin-1-yl)pyrimido[5,4-d]pyrimidin-4-yl)-1-methylpiperazin-2-one]
